Data published in patent US20110269812A1, “NOVEL BENZYLIDENE-INDOLINONE AND THEIR MEDICAL AND DIAGNOSTIC USES” (Agency for Science, Technology and Research, priority 2008, published 2011).
Where two headings read alike, the source gives them in different places.

Key:
SK-Hep1 = assay: Cell Titer-Glo viability, SK-Hep1; format: cell-based; settings: Homo sapiens
Method: The efficacy of compound 47 against HCC proliferation was tested on a wider panel of HCC cell lines: Hep3B ([…]), Hs817T (▪), PLC/PRF/5 (▴) and SK-Hep 1 (▾), as determined by Cell Titer-Glo assay.
Cells were plated at 5000-7000 cells/per well and incubated for 24 h before treatment. […] Cell Titer-Glo (Promega, Madison, Wis.) assay was performed according to manufacturer's instruction with luminescence detected on SpectraMax M5 (Molecular Devices, Sunnyvale, Calif.). Data was expressed as percentage of viability vs. vehicle-treated controls.
Accordingly, Compound 47 was screened against a larger panel of 4 additional HCC cell lines.

[1] = test system: phospho-Erk, phospho-Akt, PCNA, cyclin D1, cleaved PARP, Bax, Bcl-xL; assay: Immunoblot of signalling, cell cycling and apoptosis markers in HuH7 or HepG2; format: cell-based, human; settings: HuH7 or HepG2, 0, 1, 5 or 10 μM, 24 h
Method: HuH7 or HepG2 cells were treated with increasing concentration of Compound 47 (0, 1, 5 or 10 μM) for 24 h. Cell lysates were harvested and immunoblotted against cleaved PARP, phospho-Erk, phospho-Akt, PCNA, cyclin D1, Bax and Bcl-xL, with HSP60 as loading control.
Protein concentrations were assayed by BCA method (Pierce, Rockford, Ill.). Samples were resolved using 6-10% SDS-PAGE and transferred to nitrocellulose or PVDF membranes by tank transfer. Immunodetection was by chemiluminescence (SuperSignal, Pierce) using specific antibodies diluted in PBS with 0.05% (v/v) Tween 20 and 5% (w/v) powdered milk or BSA. Anti-phospho-IGF-1R, anti-phospho-EphA2, anti-phospho-Erk, anti-phospho-Akt, anti-Bax, anti-BCL-xL were from Cell Signaling Technology (Beverly, Mass.); anti-PCNA and anti-HSP60 from Santa Cruz Biotechnology (Santa Cruz, Calif.); anti-cyclin-D1 from BD Pharmingen (San Jose, Calif.). Secondary antibodies were anti-mouse and anti-rabbit HRP-conjugated antibodies (Pierce).
(§1) Next, the mechanism of Compound 47's anti-proliferative effects was investigated. […] However, there was little effect on the mitochondrial apoptotic players Bax and BCL-xL.

caspase-3 = assay: Caspase-3 activity assay in HuH7 and HepG2; format: cell-based, human; settings: HuH7 and HepG2, 24 h, Ac-DEVD-AMC hydrolysis
Method: HuH7 (darker bar) and HepG2 (lighter bar) cells treated as described in FIG. 4 were harvested for caspase-3 assay performed by the catalytic hydrolysis of fluorogenic Ac-DEVD-AMC. Results were expressed as a normalized RFU per μg lysate per h of incubation with the AMC substrate (n=3).
Cells were subjected to Compound 47 treatment for 24 h prior to harvesting. Caspase-3 activities were determined by as previously described (Ho HK, Pok S, Streit S, Ruhe J E, Hart S, Lim K S, et al. Fibroblast growth factor receptor 4 regulates proliferation, anti-apoptosis and alpha-fetoprotein secretion during hepatocellular carcinoma progression and represents a potential target for therapeutic intervention. J Hepatol 2009 January; 50(1):118-127). Data were expressed as RFU/μg lysate/h incubation and error bars in terms of SD with n=3.
as §1

IGF-1R = molecular target: T1, IGF-1R (Homo sapiens, UniProt P08069); assay: Human phospho-RTK array, HuH7: IGF-1R; format: cell-based; settings: 24 h, untreated 0.19
T1 construct: we examined the constitutively phosphorylated IGF-1R, EphA2 and Tyro3; endogenous in cells; host or cells: HuH7
T1 sequence (P08069 31-1367): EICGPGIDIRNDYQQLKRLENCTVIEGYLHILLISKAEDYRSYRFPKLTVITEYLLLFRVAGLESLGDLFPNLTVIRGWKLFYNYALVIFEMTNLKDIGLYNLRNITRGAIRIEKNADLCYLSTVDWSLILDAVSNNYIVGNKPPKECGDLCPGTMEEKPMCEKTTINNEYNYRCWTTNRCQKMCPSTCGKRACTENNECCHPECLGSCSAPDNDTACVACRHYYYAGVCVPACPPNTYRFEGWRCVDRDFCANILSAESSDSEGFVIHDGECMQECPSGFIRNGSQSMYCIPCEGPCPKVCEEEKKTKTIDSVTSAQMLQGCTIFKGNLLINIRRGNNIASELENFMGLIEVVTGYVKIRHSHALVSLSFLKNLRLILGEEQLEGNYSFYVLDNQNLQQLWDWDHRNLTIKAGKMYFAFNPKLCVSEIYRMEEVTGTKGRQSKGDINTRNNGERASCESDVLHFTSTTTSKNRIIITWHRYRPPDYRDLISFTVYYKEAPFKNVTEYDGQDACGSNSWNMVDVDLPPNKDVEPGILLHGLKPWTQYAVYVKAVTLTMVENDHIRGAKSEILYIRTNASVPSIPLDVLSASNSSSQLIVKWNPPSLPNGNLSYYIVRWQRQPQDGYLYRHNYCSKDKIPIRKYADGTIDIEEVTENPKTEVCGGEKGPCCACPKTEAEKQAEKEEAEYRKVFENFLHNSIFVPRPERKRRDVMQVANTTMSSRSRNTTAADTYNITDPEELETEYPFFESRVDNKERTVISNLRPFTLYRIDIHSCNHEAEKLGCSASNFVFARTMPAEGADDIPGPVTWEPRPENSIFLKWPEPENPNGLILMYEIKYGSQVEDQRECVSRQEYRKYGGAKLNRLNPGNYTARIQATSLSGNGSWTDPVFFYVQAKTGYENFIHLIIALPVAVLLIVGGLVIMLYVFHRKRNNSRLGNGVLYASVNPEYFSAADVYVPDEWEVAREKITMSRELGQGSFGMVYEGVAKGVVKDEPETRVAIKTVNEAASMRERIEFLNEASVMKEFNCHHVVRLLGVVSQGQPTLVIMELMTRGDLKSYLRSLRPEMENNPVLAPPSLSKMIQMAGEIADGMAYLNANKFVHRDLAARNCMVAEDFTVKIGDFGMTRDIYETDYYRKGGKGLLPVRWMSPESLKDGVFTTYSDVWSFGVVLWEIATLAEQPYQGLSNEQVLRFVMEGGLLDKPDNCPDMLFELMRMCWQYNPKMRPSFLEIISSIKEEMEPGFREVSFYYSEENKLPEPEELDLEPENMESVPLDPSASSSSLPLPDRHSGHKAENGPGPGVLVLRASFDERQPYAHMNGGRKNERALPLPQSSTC
Method: (§2) Kinase phosphorylation changes were determined with human phospho-RTK array.
(§3) Cells harvesting, hybridization with RTK array and incubation with anti-phosphotyrosine were performed according to manufacturer's instruction. Imaging and quantification of the spots intensities was with Fujifilm LAS-3000 (Tokyo, Japan). Average signal of the duplicate spots for each RTK was determined.

EGFR = molecular target: T2, EGFR (Homo sapiens, UniProt P00533); format: cell-based; settings: 24 h, untreated 0.15
T2 construct: Cells treated similarly were immunoprecipitated with anti-EGFR, anti-EphA2 and anti-Tyro3; endogenous in cells; host or cells: HuH7
T2 sequence (P00533 25-1210): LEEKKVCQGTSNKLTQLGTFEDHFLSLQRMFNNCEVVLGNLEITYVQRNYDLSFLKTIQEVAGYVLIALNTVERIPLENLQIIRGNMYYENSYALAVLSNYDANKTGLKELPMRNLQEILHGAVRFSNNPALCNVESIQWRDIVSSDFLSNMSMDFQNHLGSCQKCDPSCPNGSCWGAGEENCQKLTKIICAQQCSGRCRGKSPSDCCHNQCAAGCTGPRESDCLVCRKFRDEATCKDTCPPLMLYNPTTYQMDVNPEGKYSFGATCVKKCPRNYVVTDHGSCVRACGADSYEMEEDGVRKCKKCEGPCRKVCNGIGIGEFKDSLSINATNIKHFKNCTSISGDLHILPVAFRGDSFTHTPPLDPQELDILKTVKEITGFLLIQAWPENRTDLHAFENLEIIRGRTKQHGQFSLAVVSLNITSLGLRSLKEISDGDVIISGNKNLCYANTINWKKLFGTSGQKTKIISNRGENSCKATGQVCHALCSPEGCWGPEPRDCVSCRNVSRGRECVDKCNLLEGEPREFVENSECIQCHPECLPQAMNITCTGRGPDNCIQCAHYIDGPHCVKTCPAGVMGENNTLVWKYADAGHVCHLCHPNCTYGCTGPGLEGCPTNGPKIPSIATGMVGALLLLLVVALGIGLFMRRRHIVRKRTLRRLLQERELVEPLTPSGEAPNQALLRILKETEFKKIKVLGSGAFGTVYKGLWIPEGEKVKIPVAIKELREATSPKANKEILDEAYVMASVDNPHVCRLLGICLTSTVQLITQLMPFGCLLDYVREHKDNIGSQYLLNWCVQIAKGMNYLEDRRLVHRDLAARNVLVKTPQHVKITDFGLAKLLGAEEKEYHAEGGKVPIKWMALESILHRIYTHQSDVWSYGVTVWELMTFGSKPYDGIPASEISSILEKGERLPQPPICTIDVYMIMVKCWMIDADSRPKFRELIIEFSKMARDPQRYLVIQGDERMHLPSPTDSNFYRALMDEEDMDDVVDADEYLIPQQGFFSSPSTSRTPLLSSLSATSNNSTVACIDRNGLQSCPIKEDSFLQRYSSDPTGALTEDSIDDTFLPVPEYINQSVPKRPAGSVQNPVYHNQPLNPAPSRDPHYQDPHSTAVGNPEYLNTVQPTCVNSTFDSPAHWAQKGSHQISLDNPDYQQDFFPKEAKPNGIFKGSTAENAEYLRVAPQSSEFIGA
Method: as §2, §3

Tyro3 [2] = molecular target: T3, Tyro3 (Homo sapiens, UniProt Q06418); assay: Human phospho-RTK array, HuH7: Tyro-3; format: cell-based; settings: 24 h, untreated 0.15
T3 construct: we examined the constitutively phosphorylated IGF-1R, EphA2 and Tyro3; endogenous in cells; host or cells: HuH7
T3 sequence (Q06418 41-890): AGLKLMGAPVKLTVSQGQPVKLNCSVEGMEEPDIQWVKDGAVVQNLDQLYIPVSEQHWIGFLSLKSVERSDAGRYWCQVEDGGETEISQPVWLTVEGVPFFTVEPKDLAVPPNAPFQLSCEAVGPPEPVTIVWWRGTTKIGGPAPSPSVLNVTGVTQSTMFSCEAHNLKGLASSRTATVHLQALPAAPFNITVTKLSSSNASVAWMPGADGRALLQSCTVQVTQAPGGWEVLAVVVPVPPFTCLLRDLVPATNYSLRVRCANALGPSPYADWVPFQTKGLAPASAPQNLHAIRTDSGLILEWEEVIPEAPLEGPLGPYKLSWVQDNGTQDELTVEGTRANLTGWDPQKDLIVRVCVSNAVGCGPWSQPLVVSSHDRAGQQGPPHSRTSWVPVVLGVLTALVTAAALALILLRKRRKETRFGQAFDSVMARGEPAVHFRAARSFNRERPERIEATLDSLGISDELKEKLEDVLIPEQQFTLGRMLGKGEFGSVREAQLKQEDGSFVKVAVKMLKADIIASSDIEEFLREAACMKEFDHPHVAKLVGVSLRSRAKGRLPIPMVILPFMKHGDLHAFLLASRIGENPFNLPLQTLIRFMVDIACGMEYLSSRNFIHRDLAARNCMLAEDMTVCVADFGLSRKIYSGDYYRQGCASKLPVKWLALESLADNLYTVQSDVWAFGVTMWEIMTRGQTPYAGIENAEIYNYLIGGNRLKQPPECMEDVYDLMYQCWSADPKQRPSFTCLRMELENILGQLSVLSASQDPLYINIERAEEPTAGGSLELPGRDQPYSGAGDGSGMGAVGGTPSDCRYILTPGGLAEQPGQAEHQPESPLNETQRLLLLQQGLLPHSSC
Method: as §2, §3

Met = molecular target: T4, Met (Homo sapiens, UniProt P08581); assay: Human phospho-RTK array, HuH7: Met; format: cell-based; settings: 24 h, untreated 0.05
T4 construct: endogenous in cells; host or cells: HuH7
T4 sequence (P08581 25-1390): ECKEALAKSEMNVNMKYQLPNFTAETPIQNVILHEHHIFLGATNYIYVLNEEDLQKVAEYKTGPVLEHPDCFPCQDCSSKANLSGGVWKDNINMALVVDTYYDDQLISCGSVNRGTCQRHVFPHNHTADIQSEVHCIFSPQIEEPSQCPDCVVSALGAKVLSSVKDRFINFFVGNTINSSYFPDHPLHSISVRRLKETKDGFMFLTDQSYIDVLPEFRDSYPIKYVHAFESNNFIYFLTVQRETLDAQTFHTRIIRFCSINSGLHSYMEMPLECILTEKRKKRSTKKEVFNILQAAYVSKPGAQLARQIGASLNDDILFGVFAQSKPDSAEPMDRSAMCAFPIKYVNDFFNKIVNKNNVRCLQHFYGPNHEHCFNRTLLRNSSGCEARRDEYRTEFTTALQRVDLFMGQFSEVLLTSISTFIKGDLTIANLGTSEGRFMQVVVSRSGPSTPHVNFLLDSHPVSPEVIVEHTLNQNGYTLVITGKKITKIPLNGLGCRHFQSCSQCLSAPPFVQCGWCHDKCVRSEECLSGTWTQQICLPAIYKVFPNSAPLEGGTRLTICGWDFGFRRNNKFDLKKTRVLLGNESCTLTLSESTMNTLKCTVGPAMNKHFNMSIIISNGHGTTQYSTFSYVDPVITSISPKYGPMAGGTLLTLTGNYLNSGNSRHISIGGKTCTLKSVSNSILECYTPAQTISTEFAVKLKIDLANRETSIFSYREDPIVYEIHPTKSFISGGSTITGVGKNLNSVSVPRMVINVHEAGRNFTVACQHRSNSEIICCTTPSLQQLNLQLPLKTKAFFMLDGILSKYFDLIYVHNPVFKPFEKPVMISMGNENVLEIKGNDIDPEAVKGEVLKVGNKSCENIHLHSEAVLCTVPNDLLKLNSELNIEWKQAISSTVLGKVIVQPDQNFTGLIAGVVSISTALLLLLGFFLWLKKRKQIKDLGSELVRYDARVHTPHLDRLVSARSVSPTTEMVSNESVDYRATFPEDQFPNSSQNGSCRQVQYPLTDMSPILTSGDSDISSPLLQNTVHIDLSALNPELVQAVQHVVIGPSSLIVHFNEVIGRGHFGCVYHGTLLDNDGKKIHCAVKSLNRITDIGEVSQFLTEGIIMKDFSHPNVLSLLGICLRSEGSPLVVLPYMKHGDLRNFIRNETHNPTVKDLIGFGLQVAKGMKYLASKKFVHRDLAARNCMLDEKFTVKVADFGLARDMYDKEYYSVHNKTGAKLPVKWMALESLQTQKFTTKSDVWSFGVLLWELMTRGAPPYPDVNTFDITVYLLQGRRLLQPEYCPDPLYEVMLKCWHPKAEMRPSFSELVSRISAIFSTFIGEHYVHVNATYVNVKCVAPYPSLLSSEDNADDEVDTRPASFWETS
Method: as §2, §3

Tyro3 [3] = molecular target: T3, Tyro3; assay: Immunoprecipitation / anti-phosphotyrosine blot of Tyro3 in HuH7; format: cell-based; settings: HuH7, 24 h; Compound 47 1, 5 or 10 μM, sunitinib 10 μM

SMILES: O=C1Nc2cc(Cl)ccc2/C1=C\c1cccc(C(F)(F)F)c1 [Compound 47, (E)-6-Chloro-3-(3-(trifluoromethyl)benzylidene)indolin-2-one]
- IC50 (SK-Hep1): > 10 µM
- Bax and BCL-xL (mitochondrial apoptotic players) [1]: little effect
- Erk and Akt phosphorylation [1]: dose-dependent inhibition
- cleaved PARP (apoptotic marker) [1]: confirmed the participation of pro-apoptotic mechanism
- cyclin-D1 and PCNA expression (cell cycling markers) [1]: corresponding reduction
- caspase-3 activity (caspase-3): activation
- IGF-1R Phosphorylation (IGF-1R; serum starved HuH7, 1 μM): 0.22 Arbitrary units
- IGF-1R Phosphorylation (IGF-1R; serum starved HuH7, 5 μM): 0.13 Arbitrary units
- IGF-1R Phosphorylation (IGF-1R; serum starved HuH7, 10 μM): 0.07 Arbitrary units
- EGFR Phosphorylation (EGFR; serum starved HuH7, 1 μM): 0.19 Arbitrary units
- EGFR Phosphorylation (EGFR; serum starved HuH7, 5 μM): 0.44 Arbitrary units
- EGFR Phosphorylation (EGFR; serum starved HuH7, 10 μM): 0.53 Arbitrary units
- Tyro-3 Phosphorylation (Tyro3 [2]; serum starved HuH7, 1 μM): 0.10 Arbitrary units
- Tyro-3 Phosphorylation (Tyro3 [2]; serum starved HuH7, 5 μM): 0.11 Arbitrary units
- Tyro-3 Phosphorylation (Tyro3 [2]; serum starved HuH7, 10 μM): 0.07 Arbitrary units
- Met Phosphorylation (Met; serum starved HuH7, 1 μM): 0.08 Arbitrary units
- Met Phosphorylation (Met; serum starved HuH7, 5 μM): 0.05 Arbitrary units
- Met Phosphorylation (Met; serum starved HuH7, 10 μM): 0.02 Arbitrary units
- Tyro3 phosphorylation by immunoblot (Tyro3 [3]): inhibited even at the lowest concentration used (1 μM)
